Assay results published in US20120107331A1, “GEMM RIBOSWITCHES, STRUCTURE-BASED COMPOUND DESIGN WITH GEMM RIBOSWITCHES, AND METHODS AND COMPOSITIONS FOR USE OF AND WITH GEMM RIBOSWITCHES” (YALE UNIVERSITY, priority 2009, published 2012).

Key:
[1] = system: GEMM riboswitch C92U, G20A mutant; assay: Gel-shift Kd measurement, C92U, G20A double mutant RNA; format: binding, Vibrio cholerae; conditions: for Kd: gel-shift, RNA C92U, G20A, dash = no binding
Text: (§1) Point mutants were cloned using the Quik Change protocol. Radiolabeled c-di-GMP was obtained enzymatically according to published procedures and purified by polyacrylamide gel electrophoresis (PAGE) (Paul, R. et al. Cell cycle-dependent dynamic localization of a bacterial response regulator with a novel di-guanylate cyclase output domain. Genes & Development 18, 715-27 (2004); Christen, M., Christen, B., Folcher, M., Schauerte, A. & Jenal, U. Identification and characterization of a cyclic di-GMP-specific phosphodiesterase and its allosteric control by GTP. J Biol Chem 280, 30829-37 (2005)). A constitutively active DGC, PleD* was expressed and purified as described and the reaction was initiated using [α-^32P]GTP as the substrate (Paul, R. et al. Cell cycle-dependent dynamic localization of a bacterial response regulator with a novel di-guanylate cyclase output domain. Genes & Development 18, 715-27 (2004)). A single band appeared as the reaction proceeded that ran slower than the starting material when purified by PAGE. Radiolabeled c-diAMP was obtained similarly, using the protein DisA and [α-^32P]ATP as the substrate. Riboswitch RNAs were folded in the presence of radiolabeled c-di-GMP or c-diAMP and folding buffer. The complex was allowed to equilibrate for 1 hour and bound and free c-di-GMP were separated by native (100 mM Tris/HEPES pH 7.5, 10 mM MgCl2, 0.1 mM EDTA) PAGE at 4° C. A STORM phosphorimager was used to scan gels and the bands were quantitated using ImageQuant. Fraction bound was graphed versus RNA concentration and fit using KaleidaGraph to obtain Kds according to the equation:
(§2) F=fraction bound; F∞=fraction bound at saturation; C=riboswitch concentration
A gel-shift assay, which directly measures c-di-GMP binding to the GEMM RNA (FIG. 3A, B), was developed in order to test biochemical predictions resulting from the GEMM riboswitch structure. Specifically, radiolabeled c-di-GMP was incubated with the riboswitch and the RNA bound ligand was separated from the free on a native polyacrylamide gel. […]

[2] = system: GEMM riboswitch G20A mutant (WT-110 background); assay: Gel-shift Kd measurement, G20A mutant RNA; format: binding, Vibrio cholerae
Text: (§3) Point mutants were cloned using the Quik Change protocol. Radiolabeled c-di-GMP was obtained enzymatically according to published procedures and purified by polyacrylamide gel electrophoresis (PAGE) (Paul, R. et al. Cell cycle-dependent dynamic localization of a bacterial response regulator with a novel di-guanylate cyclase output domain. Genes & Development 18, 715-27 (2004); Christen, M., Christen, B., Folcher, M., Schauerte, A. & Jenal, U. Identification and characterization of a cyclic di-GMP-specific phosphodiesterase and its allosteric control by GTP. J Biol Chem 280, 30829-37 (2005)). A constitutively active DGC, PleD* was expressed and purified as described and the reaction was initiated using [α-^32P]GTP as the substrate (Paul, R. et al. Cell cycle-dependent dynamic localization of a bacterial response regulator with a novel di-guanylate cyclase output domain. Genes & Development 18, 715-27 (2004)). […] A STORM phosphorimager was used to scan gels and the bands were quantitated using ImageQuant. […]
(§4) The three nucleotides directly involved in ligand recognition (G20, A47 and C92) were mutated and affinity for c-di-GMP was measured by gel shift analysis in the context of the WT-110 nucleotide background (Table 1) (Sudarsan, N. et al. Riboswitches in eubacteria sense the second messenger cyclic di-GMP. Science 321, 411-3). […]

[3] = system: GEMM riboswitch G20U mutant (WT-110 background); assay: Gel-shift Kd measurement, G20U mutant RNA; format: binding, Vibrio cholerae
Text: as §3, §4

[4] = system: GEMM riboswitch G20C mutant (WT-110 background); assay: Gel-shift Kd measurement, G20C mutant RNA; format: binding, Vibrio cholerae
Text: as §1
F=fraction bound; F∞=fraction bound at saturation; C=riboswitch concentration […]
as §4

[5] = system: GEMM riboswitch C92 to A mutant (WT-110 background); assay: Gel-shift affinity measurement, C92A mutant RNA; format: binding, Vibrio cholerae
Text: as §3, §4

GEMM riboswitch = conditions: Sudarsan et al. 2008; read-out: affinity; cited from earlier work
[6] = system: natural GEMM sequence lacking C at position 92, C at position 93 mutated to an A; assay: Binding of c-di-GMP to natural GEMM sequence with C93 mutated to A
Description: (§5) The three nucleotides directly involved in ligand recognition (G20, A47 and C92) were mutated and affinity for c-di-GMP was measured by gel shift analysis in the context of the WT-110 nucleotide background (Table 1) (Sudarsan, N. et al. Riboswitches in eubacteria sense the second messenger cyclic di-GMP. Science 321, 411-3). Mutational analysis supports the crystallographically observed base pair between a conserved cytidine, C92, and c-di-GMP. […] By mutating it to an A or G, this ability to base pair with the ligand is lost. The large effect that these mutations have on ligand binding confirms that C92 is making an important contact with Gβ. The minor affect seen upon mutation to a U is in a reasonable range given the potential to form a wobble pair with Gβ. A natural GEMM sequence has been identified that lacks a C at position 92, but instead has a C at position 93. This RNA can bind c-di-GMP with an affinity of approximately 1 uM.

[7] = biological target: known c-di-GMP binding proteins; conditions: range from 50 nM to several micromolar; Hengge 2009; read-out: binding affinity; cited from earlier work
[8] = biological target: GEMM riboswitch Vc2 110 (WT-110); assay: Gel-shift Kd measurement, WT-110 RNA; format: binding, Vibrio cholerae; conditions: for Kd / binding (in words): gel-shift; for Kd: radiolabeled ligand, RNA WT-110, dash = no binding
Text: as §1, §2
(§6) A gel-shift assay, which directly measures c-di-GMP binding to the GEMM RNA (FIG. 3A, B), was developed in order to test biochemical predictions resulting from the GEMM riboswitch structure. Specifically, radiolabeled c-di-GMP was incubated with the riboswitch and the RNA bound ligand was separated from the free on a native polyacrylamide gel.
This assay was used to measure a binding constant for the crystallized RNA and also to verify that this method gave the Kd measurements similar to what had been fond using in-line probing. To validate the method, Vc2 110 was used and found to have a Kd of ˜7 nM. This value agrees well with affinities obtained previously by in-line probing for this same sequence (Sudarsan, N. et al. Riboswitches in eubacteria sense the second messenger cyclic di-GMP. Science 321, 411-3). A RNA corresponding to the crystallization construct with no U1A binding loop (Vc2 91) was then tested. […] The RNA used in the crystallographic studies (Vc2 91 with a U1A binding loop) bound with a Kd slightly weaker than wild-type, but is within 9-fold of the original value.

[9] = system: GEMM riboswitch A47U mutant (WT-110 background); assay: Gel-shift Kd measurement, A47U mutant RNA; format: binding, Vibrio cholerae
Text: as §3, §4

[10] = system: GEMM riboswitch A47G mutant (WT-110 background); assay: Gel-shift Kd measurement, A47G mutant RNA; format: binding, Vibrio cholerae; conditions: for Kd: gel-shift, RNA A47G, dash = no binding
Text: as §1, §2, §6
as §5, with “A natural GEMM sequence has been identified that lacks a C at position 92, but instead has a C at position 93. This RNA can bind c-di-GMP with an affinity of approximately 1 uM.” left out

[11] = biological target: GEMM riboswitch Vc2 91 with a U1A binding loop (WT-U1A); assay: Gel-shift Kd measurement, WT-U1A RNA (Vc2 91 with a U1A binding loop); parameters: species or system Vibrio cholerae
Text: as §3, with “(2004)). A single band appeared as the reaction proceeded that ran slower than the starting material when purified by PAGE. Radiolabeled c-diAMP was obtained similarly, using the protein DisA and [α-^32P]ATP as the substrate. Riboswitch RNAs were folded in the presence of radiolabeled c-di-GMP or c-diAMP and folding buffer.” for “(2004)).”

[12] = system: GEMM riboswitch A47C mutant (WT-110 background); assay: Gel-shift Kd measurement, A47C mutant RNA; format: binding, Vibrio cholerae
Text: as §3, §4

[13] = system: GEMM riboswitch C92U mutant (WT-110 background); assay: Gel-shift Kd measurement, C92U mutant RNA; format: binding, Vibrio cholerae; conditions: for Kd / binding (in words): gel-shift; for Kd: RNA C92U, dash = no binding; for binding (in words): C92U RNA
Text: as §1, §2, §6, §5

[14] = biological target: GEMM riboswitch Vc2 91 (WT-91); assay: Gel-shift Kd measurement, WT-91 RNA (crystallization construct with no U1A binding loop); parameters: species or system Vibrio cholerae; conditions: radiolabeled ligand, RNA WT-91, dash = no binding seen
Text: as §3, with “(2004)). A single band appeared as the reaction proceeded that ran slower than the starting material when purified by PAGE. Radiolabeled c-diAMP was obtained similarly, using the protein DisA and [α-^32P]ATP as the substrate. Riboswitch RNAs were folded in the presence of radiolabeled c-di-GMP or c-diAMP and folding buffer.” for “(2004)).”

[15] = system: GEMM riboswitch C92 to G mutant (WT-110 background); assay: Gel-shift affinity measurement, C92G mutant RNA; format: binding, Vibrio cholerae
Text: as §3, §4

[16] = biological target: natural GEMM sequence that lacks a C at position 92 but has a C at position 93; assay: Binding of c-di-GMP to natural GEMM sequence with C at position 93; conditions: read-out: affinity
Description: as §5

## Nc1ncnc2c1ncn2[C@@H]1O[C@@H]2COP(=O)(O)O[C@H]3[C@@H](O)[C@H](n4cnc5c(N)ncnc54)O[C@@H]3COP(=O)(O)O[C@H]2[C@H]1O [c-di-AMP, cyclic diadenosine monophosphate]
[1]; C92U/G20A double mutant
  bound c-di-AMP better than c-di-GMP: approximately 6 fold
[1]
  Kd: 0.54 ± 0.029 µM

## Nc1nc2c(ncn2[C@@H]2O[C@@H]3COP(=O)(O)O[C@H]4[C@@H](O)[C@H](n5cnc6c(=O)[nH]c(N)nc65)O[C@@H]4COP(=O)(O)O[C@H]3[C@H]2O)c(=O)[nH]1 [c-di-GMP, cyclic diguanosine monophosphate]
[2]; G20 to A
  effect of mutation on affinity (in words): maintains approximately wild-type affinity
[2]; gel-shift, RNA G20A, dash = no binding
  Kd: 0.0047 ± 0.0013 µM
[3]; G20U vs wild-type
  loss in affinity: approximately 45 fold
[3]; gel-shift, RNA G20U, dash = no binding
  Kd: 0.33 ± 0.15 µM
[4]; G20C vs wild-type
  reduction in affinity: 2 fold
[4]; G20 to C
  effect of mutation on affinity (in words): maintains approximately wild-type affinity
[4]; gel-shift, RNA G20C, dash = no binding
  Kd: 0.013 ± 0.0012 µM
[5]
  effect of mutation on affinity (in words): reduces affinity for c-di-GMP substantially
GEMM riboswitch
  Kd: ~0.001 µM
[6]
  affinity (in words): all affinity for c-di-GMP is lost
[7]
  Kd: ≥ 0.05 µM
[8]
  Kd: 0.0074 ± 0.0024 µM
[9]; A47 mutated to U vs wild-type
  decrease in binding affinity: approximately 1000 fold
[9]; gel-shift, RNA A47U, dash = no binding
  Kd: 3.5 ± 0.52 µM
[1]
  Kd: 3.2 ± 0.6 µM
[10]; A47 mutated to G vs wild-type
  decrease in binding affinity: approximately 1000 fold
[10]
  Kd: 4.2 ± 1.7 µM
[11]; Vc2 91 with U1A binding loop vs original value
  Kd weaker than wild-type: ≤ 9 fold
[11]; gel-shift, radiolabeled ligand, RNA WT-U1A, dash = no binding seen
  Kd: 0.055 ± 0.014 µM
[12]; A47 mutated to C vs wild-type
  decrease in binding affinity: approximately 1000 fold
[12]; gel-shift, RNA A47C, dash = no binding
  Kd: 8.5 ± 3 µM
[13]; C92U vs wild-type, c-di-GMP
  loss in affinity: 6 fold
[13]
  Kd: 0.043 ± 0.019 µM
[14]
  Kd: 0.0064 ± 0.0028 µM
[15]
  effect of mutation on affinity (in words): reduces affinity for c-di-GMP substantially
[16]
  Kd: ~1 µM

## Nc1nc2c(ncn2[C@@H]2O[C@H](COP(=O)(O)O[C@H]3[C@@H](O)[C@H](n4cnc5c(N)ncnc54)O[C@@H]3COP(=O)(O)O)[C@@H](O)[C@H]2O)c(=O)[nH]1 [pApG]
[13]
  binding (in words): does not bind

## Nc1nc2c(ncn2[C@@H]2O[C@H](COP(=O)(O)O)[C@@H](OP(=O)(O)OC[C@H]3O[C@@H](n4cnc5c(N)ncnc54)[C@H](O)[C@@H]3O)[C@H]2O)c(=O)[nH]1 [pGpA]
[8]; wild-type sequence
  binding (in words): not
[13]; C92U RNA with pGpA vs wild-type RNA with pGpG
  affinity lower than that of the wild-type RNA for pGpG: approximately 27 fold
[13]
  binding (in words): binding was observed
  Kd: 16 ± 5.2 µM

## Nc1nc2c(ncn2[C@@H]2O[C@H](COP(=O)(O)O[C@H]3[C@@H](O)[C@H](n4cnc5c(=O)[nH]c(N)nc54)O[C@@H]3COP(=O)(O)O)[C@@H](O)[C@H]2O)c(=O)[nH]1 [pGpG]
[8]
  Kd: 0.49 ± 0.15 µM
[8]; wild-type sequence
  binding (in words): binds
[8]; wild-type sequence, pGpG vs c-di-GMP
  affinity lower than that of the cyclic ligand: approximately 66 fold
[10]; A47G, pGpG vs c-di-GMP
  binds the linear form better than c-di-GMP: 3 fold
[10]
  Kd: 1.4 ± 0.12 µM
[13]
  binding (in words): does not bind
